Reference: paper PMC12655235 (Pharmaceuticals, 2025)

Tests used:
[1] = Solubility study of folic acid in acetone; type: physicochemical; details: sedimentation at 40 mg
Protocol: The optimized formulation, composed of 39.60% w/w solutol, 10.50% w/w oils and 16.60 mg total drugs, was selected using Design Expert® software based on achieving the smallest PS, then prepared and experimentally evaluated to verify agreement between predicted and actual values. […] Accordingly, LNCs functionalized with 10, 20, and 30 mg FA were prepared and assessed for PS, PDI, and ZP. […] This oily phase was then mixed with the aqueous phase (composed of 100 mg sodium chloride in 2.5 mL distilled water). Then the mixture was subjected to three thermal cycling intervals (85 °C and 55 °C) under magnetic stirring. Finally ice-cold water was added till 10 g formulation was obtained. Stirring then continued for 10 min at room temperature.

[2] = cited from earlier work
U87 cells = assay: MTT assay for cell viability; type: cell-based; details: Homo sapiens, U-87 MG, 24 h incubation
Protocol: U87 cells were maintained in DMEM supplemented with 10% fetal bovine serum and antibiotics (100 U/mL penicillin, 100 µg/mL streptomycin) at 37 °C in a humidified 5% CO2 atmosphere under sterile conditions. To ensure accurate experimental comparisons, all experiments included two control groups: a negative control of cells incubated in drug-free medium, and a solvent control with cells exposed to drug-free medium containing 0.5% DMSO, to evaluate any potential solvent toxicity. Cell viability was determined using the MTT assay after a 24 h incubation of U87 cells with various drug formulations. These included free atorvastatin, free curcumin, a solution combining atorvastatin and curcumin, At-Cu LNCs and FA-At-Cu LNCs. Stock solutions (2 mg/mL) for individual free drugs and their combination were prepared in phosphate-buffered saline (PBS) containing 1% sterile DMSO to ensure complete solubilization, from which serial dilutions (25–800 µg/mL) were then made. At-Cu LNCs and FA-At-Cu LNCs were sonicated for 5 min prior to preparing their serial dilutions (0.025–250 µg/mL). […] The resultant formazan crystals were dissolved in acidified isopropanol, and absorbance was measured at 560 nm using PHERAstar microplate reader (BMG Labtech, Ortenberg, Germany). Cell viability was expressed as a percentage of untreated control cells, and half-maximal inhibitory concentrations (IC50) were calculated. […]

[3] = In vivo pharmacokinetics and biodistribution of 131I-radiolabeled drugs in glioma-bearing mice; set-up: species or system BALB/c mice; details: [131I]-curcumin
Protocol: Labeling conditions were systematically optimized by varying pH, drug concentration, oxidant amount, and reaction time. […] Purification was achieved by RP-HPLC to remove free iodine and impurities. […] The radiochemical yield was determined by calculating the percentage of the total radioactivity attributed to the radio-iodinated compound, using the following equation [105, 106]: Radiochemical yield %=Activity of labeled compond/Total activity ×100
All animal procedures were conducted in accordance with arrive guidelines and were approved by the Research Ethics Committee at the Faculty of Pharmacy, The British university in Egypt, with approval number (EX-2508). Male BALB/c mice (6 weeks old, weighing 20–25 g) were utilized for the study. Prior to the start of experiments, animals were acclimatized for two weeks under controlled environmental conditions (25 ± 2 °C, 12 h light/dark cycle) in group-housed (3–5 mice/cage) polypropylene cages at the animal house of the Egyptian Atomic Energy Authority. […] For induction of brain tumor in mice, they were anesthetized through intraperitoneal injection of 0.1 mL of ketamine-xylazine solution containing ketamine HCl (25 mg/mL) and xylazine (2.5 mg/mL) as described in current protocols. To implant cells intracranially, a calibrated 26-gauge 701N Hamilton micro-syringe (Micromeasure B.V., The Hague, The Netherlands) was used to inject 5 µL of 2.5 × 10^6 cells of CT-2A glioma cell suspension intracranially through the post glenoid foramen as previously reported. The right auricle was slowly pushed forward during the procedure, exposing the site of insertion. The syringe was held at an appropriate angle, and the cell suspension was slowly injected over 30 s. On completion, the needle was removed gently while applying light finger pressure to prevent bleeding. Additional pressure was applied for an additional 30 s after the removal of the needle to achieve hemostasis.
One hundred and eighty BALB/c mice were randomly assigned into six experimental groups, each further divided into six subgroups (n = 5 per subgroup), corresponding to specific time points post-injection: 0.5, 1, 2, 4, 8, and 24 h. […] Formulations were prepared under aseptic conditions using sterile water for injection and a laminar flow hood.
At each time point, five mice per group were anesthetized using isoflurane, and blood samples were collected by cardiac puncture into pre-heparinized polypropylene tubes. Mice were then euthanized by CO2 inhalation, and organs including the brain, liver, and kidneys and others were excised, rinsed with physiological saline, gently blotted, and weighed. Tissue and plasma samples were analyzed for radioactivity using a well-type γ-scintillation counter (SR-7,Nuclear Enterprises Ltd., San Carlos, CA, USA) and data were expressed as the percentage of the injected dose per gram of tissue (%ID/g).
The mean radioactivity values (represented as % injected dose per gram of tissue, %ID/g) acquired at various time points were examined using PKSolver, a Microsoft Excel add-in, in order to evaluate the pharmacokinetic behavior and tissue distribution of the radiolabeled formulations. […] AUC values based on time-radioactivity data were calculated using the trapezoidal rule.
Two quantitative parameters were computed using the AUC values obtained from the biodistribution study in order to assess the targeting performance and tissue selectivity of the formulations. The following equation was used to calculate tumor targeting efficiency (%): Tumor targeting efficiency %= AUC0−24 glioma/AUC0−24 blood x100

[4] = i.v. 2 mg/kg, glioma-bearing mice

Row | Compound | Complete solubility in acetone [1] | Renal excretion of atorvastatin and its active metabolites [2] | IC50 (U87 cells) [µg/mL] | AUC (0–24 h) Intestine, curcumin ([3]; i.v.) [%ID*h/g tissue] | AUC (0–24 h) Spleen, curcumin ([3]; i.v.) [%ID*h/g tissue] | AUC (0–24 h) kidneys, curcumin ([3]; i.v.) [%ID*h/g tissue] | AUC (0–24 h) liver, curcumin ([3]; i.v.) [%ID*h/g tissue] | AUC (0–24 h) Blood, curcumin [3, 4] [%ID*h/g tissue] | AUC (0–24 h) Brain, curcumin [3, 4] [%ID*h/g tissue] | AUC (0–24 h) Glioma, curcumin [3, 4] [%ID*h/g tissue]
1 | Nc1nc2ncc(CNc3ccc(C(=O)N[C@@H](CCC(=O)O)C(=O)O)cc3)nc2c(=O)[nH]1 [FA, Folic acid] | up to 30 mg |  |  |  |  |  |  |  |  | 
2 | CC(C)c1c(C(=O)Nc2ccccc2)c(-c2ccccc2)c(-c2ccc(F)cc2)n1CC[C@@H](O)C[C@@H](O)CC(=O)O [atorvastatin, Atorvastatin calcium] |  | less than 2 % of the dose | 680 ± 17.2 |  |  |  |  |  |  | 
3 | COc1cc(/C=C/C(=O)CC(=O)/C=C/c2ccc(O)c(OC)c2)ccc1O [curcumin, Curcumin] |  |  | 724 ± 78.3 | 526.50 ± 111.63 | 7.07 ± 1.70 | 57.87 ± 12.47 | 711.50 ± 114.83 | 72.27 ± 15.44 | 1.47 ± 0.44 | 3.72 ± 1.34
